{"source": "paper PMC2867052", "about": "(Journal of contaminant hydrology, 2009)", "key": {"[1]": {"type": "physicochemical", "settings": "for Sherwood Number (Sh): calculated from initial dissolution rate coefficient; for Dissolution Rate Coeff. (kL): model-calibrated initial value"}, "[2]": {"settings": "10% by weight HPCD"}, "[3]": {"type": "physicochemical", "settings": "for Dissolution Rate Coeff. (kL): model-calibrated initial value"}, "[4]": {"settings": "single-component organic liquid"}, "[5]": {"settings": "1 Component - HPCD (10% by weight)"}, "[6]": {"settings": "3 Component - HPCD (10% by weight)"}}, "note": "Like-named read-outs stand apart in the source and are kept apart here."}
{"smiles": "CCc1ccccc1", "note": "[ethylbenzene]", "values": [{"measurement": "E-Normalized Rate Coeff. (kL/E)", "setting": "[1]; 3 Component - Water", "result": "17 ± 3", "unit": "h⁻¹"}, {"measurement": "Sherwood Number (Sh)", "setting": "[1]; 3 Component - Water", "result": 0.6}, {"measurement": "Dissolution Rate Coeff. (kL)", "setting": "[1]; 3 Component - Water", "result": "17 ± 3", "unit": "h⁻¹"}, {"measurement": "10% HPCD Enhancement Factor (E°)", "setting": "[2]; [4]", "result": 20}, {"measurement": "10% HPCD Enhancement Factor (E°)", "setting": "[2]; three-component organic liquid (Tol-EB-BB)", "result": 19}, {"measurement": "E-Normalized Rate Coeff. (kL/E)", "setting": "[3]; 1 Component - HPCD", "result": "17 ± 3", "unit": "h⁻¹"}, {"measurement": "Sherwood Number (Sh)", "setting": "[3]; [5]", "result": 15}, {"measurement": "Dissolution Rate Coeff. (kL)", "setting": "[3]; [5]", "result": "342 ± 57", "unit": "h⁻¹"}, {"measurement": "E-Normalized Rate Coeff. (kL/E)", "setting": "[3]; 3 Component - HPCD", "result": "18 ± 3", "unit": "h⁻¹"}, {"measurement": "Sherwood Number (Sh)", "setting": "[3]; [6]", "result": 14}, {"measurement": "Dissolution Rate Coeff. (kL)", "setting": "[3]; [6]", "result": "341 ± 57", "unit": "h⁻¹"}]}
{"smiles": "Cc1ccccc1", "note": "[toluene, Toluene]", "values": [{"measurement": "E-Normalized Rate Coeff. (kL/E)", "setting": "[1]; 1 Component - Water", "result": "22 ± 5", "unit": "h⁻¹"}, {"measurement": "E-Normalized Rate Coeff. (kL/E)", "setting": "[1]; 3 Component - Water", "result": "21 ± 4", "unit": "h⁻¹"}, {"measurement": "Dissolution Rate Coeff. (kL)", "setting": "[1]; 3 Component - Water", "result": "21 ± 4", "unit": "h⁻¹"}, {"measurement": "10% HPCD Enhancement Factor (E°)", "setting": "[2]; [4]", "result": 7.7}, {"measurement": "E-Normalized Rate Coeff. (kL/E)", "setting": "[3]; 1 Component - HPCD", "result": "21 ± 6", "unit": "h⁻¹"}, {"measurement": "Sherwood Number (Sh)", "setting": "[3]; [5]", "result": 6}, {"measurement": "Dissolution Rate Coeff. (kL)", "setting": "[3]; [5]", "result": "161 ± 44", "unit": "h⁻¹"}, {"measurement": "E-Normalized Rate Coeff. (kL/E)", "setting": "[3]; 3 Component - HPCD", "result": "21 ± 4", "unit": "h⁻¹"}, {"measurement": "Sherwood Number (Sh)", "setting": "[3]; [6]", "result": 6}, {"measurement": "Dissolution Rate Coeff. (kL)", "setting": "[3]; [6]", "result": "165 ± 30", "unit": "h⁻¹"}]}
{"smiles": "CCCCc1ccccc1", "note": "[butylbenzene]", "values": [{"measurement": "E-Normalized Rate Coeff. (kL/E)", "setting": "[1]; 3 Component - Water", "result": "15 ± 11", "unit": "h⁻¹"}, {"measurement": "Sherwood Number (Sh)", "setting": "[1]; 3 Component - Water", "result": 0.6}, {"measurement": "Dissolution Rate Coeff. (kL)", "setting": "[1]; 3 Component - Water", "result": "15 ± 11", "unit": "h⁻¹"}, {"measurement": "E-Normalized Rate Coeff. (kL/E)", "setting": "[3]; 1 Component - HPCD", "result": "16 ± 2", "unit": "h⁻¹"}, {"measurement": "Sherwood Number (Sh)", "setting": "[3]; [5]", "result": 100}, {"measurement": "Dissolution Rate Coeff. (kL)", "setting": "[3]; [5]", "result": "1902 ± 240", "unit": "h⁻¹"}, {"measurement": "E-Normalized Rate Coeff. (kL/E)", "setting": "[3]; 3 Component - HPCD", "result": "15 ± 4", "unit": "h⁻¹"}, {"measurement": "Sherwood Number (Sh)", "setting": "[3]; [6]", "result": 82}, {"measurement": "Dissolution Rate Coeff. (kL)", "setting": "[3]; [6]", "result": "1900 ± 490", "unit": "h⁻¹"}]}
